Assay results reported in US20120251448A1, “Compounds for Use in the Detection of Neurodegenerative Diseases” (priority 2011, published 2012).
Read-outs that look alike come from different tables or passages of the source.

How the values were obtained:
α-synuclein aggregates = α-synuclein aggregates (Homo sapiens, UniProt P37840); assay: in vitro competition binding assay with [3H] positive reference compound #1 on α-synuclein aggregates
Description: In order to assess relative binding affinities of the test compounds for aggregated α-synuclein, competition assays were set up with a radiolabeled molecule already known to bind to α-synuclein fibrils and non-radiolabeled test compounds. In order to induce its aggregation, α-synuclein was incubated in phosphate buffered saline (PBS, pH 7.4) at 37° C. for three days with shaking (1,400 rpm). Competitive binding assays were carried out in 12×75 mm borosilicate glass tubes. […] The mixture was incubated for 120 min at 37° C., and the bound and the free radioactivity were separated by vacuum filtration through Whatman GF/B filters using a Brandel M-24R cell harvester, followed by washing with PBS buffer three times. […] IC50 values were determined by a non-linear, least squares regression analysis.

[1] = tested on: amyloid-β peptide of Alzheimer's disease; assay: binding affinity for amyloid-β peptide (data not shown)
[2] = competition against [3H] positive reference compound #1 (100-200 nM), 120 min at 37° C., PBS, Ki by Cheng-Prusoff from IC50

| SMILES | Ki (α-synuclein aggregates; [2]) [nM] | Ki (α-synuclein aggregates) [nM] | binding affinity for the amyloid-β peptide [1] |
| --- | --- | --- | --- |
| Oc1ccc(-c2nc3cc(O)c(O)cc3o2)cc1O [SA-54] | 1640 |  |  |
| Oc1ccc(-c2nnc(-c3cc(O)c(O)cc3Br)o2)cc1O [SA-55] |  | 370 |  |
| Oc1ccc(-c2cc(-c3ccc(O)c(O)c3)c(-c3ccc(O)c(O)c3)s2)cc1O [SA-61] | 3100 |  |  |
| Oc1ccc(-c2cnc(-c3ccc(O)c(O)c3)s2)cc1O [SA-64] |  | 89 | does not show significant binding affinity |

The next lines start with results.

| Ki (α-synuclein aggregates; [2]) [nM] | Ki (α-synuclein aggregates) [nM] | SMILES | binding affinity for the amyloid-β peptide [1] |
| --- | --- | --- | --- |
| 124 |  | Oc1ccc(-c2nsc(-c3ccc(O)c(O)c3)n2)cc1O [SA-57] |  |
| 466 |  | Oc1ccc(-c2nnc(-c3ccc(O)c(O)c3)o2)cc1O [SA-67] |  |
| 697 |  | Oc1ccc(-c2cn(-c3ccc(O)c(O)c3)nn2)cc1O [SA-68] |  |
| 659 |  | Oc1ccc(-c2cnc(-c3ccc(O)c(O)c3)o2)cc1O [SA-70] |  |
